# Read-outs that look alike come from different tables or passages of the source.
# What was measured:
# [1] = system: K562/ADR; test: Leukemia cell growth inhibition, MTT, 72 h; assay type: cell-based; conditions: Homo sapiens
# Text: (§1) Leukemia cell lines: leukemia cell lines: K562/adr (drug-resistant, chronic myeloid leukemia, CML), NB4 (acute promyelocytic leukemia, AML), Kasumi-1 (acute myeloid leukemia M2 type, AML-M2), Jurkat (acute lymphoblastic leukemia, ALL), all of which were donated by Cancer Research Institute of Zhejiang University, China; and H9 (acute lymphoblastic leukemia, ALL), which was purchased from China Center for Type Culture Collection.
# (§2) 6000 well-growing leukemia cells were obtained and inoculated into wells of a 96-well cell culture plate. […] On the next day, the 1-oxo/acylated-14-acylated oridonin derivatives of different concentrations were added and mixed uniformly. The plate was placed in a carbon dioxide cell incubator (5% CO2) at 37° C. and was incubated for 72 hours. Then the viable cell concentration was determined by MTT method.
# [2] = system: Kasumi-1; test: Leukemia cell growth inhibition, MTT, 72 h; assay type: cell-based; conditions: Homo sapiens
# Text: as §1, §2
# [3] = system: H9; test: Leukemia cell growth inhibition, MTT, 72 h; assay type: cell-based, human; conditions: for IC50 / IC90: Homo sapiens, H9, 72 h, MTT
# Text: as §1, §2
# [4] = system: Jurkat; test: Leukemia cell growth inhibition, MTT, 72 h; assay type: cell-based, human; conditions: Homo sapiens, Jurkat; 72 h, MTT
# Text: as §1, §2
# [5] = system: NB4; test: Leukemia cell growth inhibition, MTT, 72 h; assay type: cell-based, human; conditions: for IC50 / IC90: Homo sapiens, NB-4, 72 h, MTT
# Text: as §1, §2
# [6] = system: RPMI 8226; test: Multiple myeloma cell growth inhibition, MTT, 72 h; assay type: cell-based; conditions: Homo sapiens
# Protocol: Multiple myeloma cell lines: RPMI8226 (multiple myeloma), purchased from Fuxiang Bio-tech Co. Ltd., Shanghai, China.
# as §2, with “well-growing” for “well-growing leukemia”, “and” for “and was”
# [7] = system: CNE; test: Solid tumor cell growth inhibition, MTT, 72 h; assay type: cell-based, human; conditions: for IC50 / IC90: Homo sapiens, CNE, 72 h, MTT
# Protocol: (§3) 6000 well-growing human solid tumor cells were obtained and inoculated into wells of a 96-well cell culture plate. The culture medium was DMEM High Glucose cell culture medium containing 10% fetal bovine serum. The plate was placed in a carbon dioxide cell incubator (5% CO2) at 37° C. and incubated for 24 hours. After added with 1-oxo/acylated-14-acylated oridonin derivatives of different concentration and mixed uniformly, the plate was placed in a carbon dioxide cell incubator (5% CO2) at 37° C. and incubated for 72 hours. Then the viable cell concentration was determined by MTT method.
# [8] = system: Hela; test: Solid tumor cell growth inhibition, MTT, 72 h; assay type: cell-based, human; conditions: for IC50 / IC90: Homo sapiens, HeLa, 72 h, MTT
# Protocol: as §3
# [9] = system: Hep-2; test: Solid tumor cell growth inhibition, MTT, 72 h; assay type: cell-based, human; conditions: for IC50 / IC90: Homo sapiens, HEp-2, 72 h, MTT
# Protocol: as §3
# [10] = system: MGC-803; test: Solid tumor cell growth inhibition, MTT, 72 h; assay type: cell-based, human; conditions: for IC50 / IC90: Homo sapiens, MGC-803, 72 h, MTT
# Protocol: as §3
# [11] = system: A549; test: Solid tumor cell growth inhibition, MTT, 72 h; assay type: cell-based; conditions: Homo sapiens
# Protocol: as §3
# [12] = system: Becap-37; test: Solid tumor cell growth inhibition, MTT, 72 h; assay type: cell-based; conditions: Homo sapiens
# Protocol: as §3
# [13] = system: CaEs-17; test: Solid tumor cell growth inhibition, MTT, 72 h; assay type: cell-based; conditions: Homo sapiens, CaEs17
# Protocol: as §3
# [14] = system: Hep G2; test: Solid tumor cell growth inhibition, MTT, 72 h; assay type: cell-based; conditions: Homo sapiens, HepG2
# Protocol: as §3
# [15] = system: MG-63; test: Solid tumor cell growth inhibition, MTT, 72 h; assay type: cell-based; conditions: Homo sapiens
# Protocol: as §3
# [16] = system: PANC-1; test: Solid tumor cell growth inhibition, MTT, 72 h; assay type: cell-based; conditions: Homo sapiens
# Protocol: as §3
# [17] = system: PC-3; test: Solid tumor cell growth inhibition, MTT, 72 h; assay type: cell-based; conditions: Homo sapiens
# Protocol: as §3
# [18] = system: RKO; test: Solid tumor cell growth inhibition, MTT, 72 h; assay type: cell-based; conditions: Homo sapiens
# Protocol: as §3
# [19] = system: SK-OV-3; test: Solid tumor cell growth inhibition, MTT, 72 h; assay type: cell-based; conditions: Homo sapiens; for IC50: read-out: IC50 SK-OV-3; for IC90: read-out: IC90 SK-OV-3
# Protocol: as §3
# [20] = system: U87-MG; test: Solid tumor cell growth inhibition, MTT, 72 h; assay type: cell-based; conditions: Homo sapiens, U-87 MG
# Protocol: as §3
compound,measurement,setting,value
C=C1C(=O)[C@]23[C@H](OC(=O)c4ccccc4Cl)[C@H]1CC[C@H]2[C@@]12CO[C@@]3(O)[C@@H](O)[C@@H]1C(C)(C)CCC2=O [BS-OR-003],IC50,[1],0.71 µg/mL
same,IC90,[1],2.07 µg/mL
same,IC50,[2],0.72 µg/mL
same,IC90,[2],2.25 µg/mL
same,IC50,[3],0.83 µg/mL
same,IC90,[3],1.82 µg/mL
same,IC50,[4],0.81 µg/mL
same,IC90,[4],2.72 µg/mL
same,IC50,[5],0.22 µg/mL
same,IC90,[5],0.81 µg/mL
same,IC50,[6],0.46 µg/mL
same,IC90,[6],1.79 µg/mL
same,IC50,[7],1.93 µg/mL
same,IC90,[7],6.62 µg/mL
same,IC50,[8],1.84 µg/mL
same,IC90,[8],5.31 µg/mL
same,IC50,[9],1.85 µg/mL
same,IC90,[9],7.56 µg/mL
same,IC50,[10],1.43 µg/mL
same,IC90,[10],10.7 µg/mL
same,IC50,[11],2.82 µg/mL
same,IC90,[11],5.64 µg/mL
same,IC50,[12],1.12 µg/mL
same,IC90,[12],3.09 µg/mL
same,IC50,[13],1.49 µg/mL
same,IC90,[13],5.23 µg/mL
same,IC50,[14],1.69 µg/mL
same,IC90,[14],7.48 µg/mL
same,IC50,[15],0.48 µg/mL
same,IC90,[15],2.74 µg/mL
same,IC50,[16],2.34 µg/mL
same,IC90,[16],8.51 µg/mL
same,IC50,[17],1.82 µg/mL
same,IC90,[17],3.82 µg/mL
same,IC50,[18],0.66 µg/mL
same,IC90,[18],1.49 µg/mL
same,IC50,"[19]; SK-OV-3, 72 h, MTT",1.82 µg/mL
same,IC90,"[19]; SK-OV-3, 72 h, MTT",3.82 µg/mL
same,IC50,[20],0.99 µg/mL
same,IC90,[20],2.82 µg/mL
C=C1C(=O)[C@]23[C@H](OC(=O)C4CCC(NC(=O)c5ccccn5)CC4)[C@H]1CC[C@H]2[C@@]12CO[C@@]3(O)[C@@H](O)[C@@H]1C(C)(C)CCC2=O (stereo partly drawn) [BS-OR-083],IC50,[1],0.58 µg/mL
same,IC90,[1],1.94 µg/mL
same,IC50,[2],1.09 µg/mL
same,IC90,[2],2.59 µg/mL
same,IC50,[3],0.56 µg/mL
same,IC90,[3],1.54 µg/mL
same,IC50,[4],0.89 µg/mL
same,IC90,[4],4.13 µg/mL
same,IC50,[5],0.31 µg/mL
same,IC90,[5],0.99 µg/mL
same,IC50,[6],0.85 µg/mL
same,IC90,[6],2.92 µg/mL
same,IC50,[7],1.52 µg/mL
same,IC90,[7],4.42 µg/mL
same,IC50,[8],1.92 µg/mL
same,IC90,[8],4.95 µg/mL
same,IC50,[9],3.13 µg/mL
same,IC90,[9],15.5 µg/mL
same,IC50,[10],1.26 µg/mL
same,IC90,[10],5.57 µg/mL
same,IC50,[11],5.07 µg/mL
same,IC90,[11],11.3 µg/mL
same,IC50,[12],2.21 µg/mL
same,IC90,[12],6.5 µg/mL
same,IC50,[13],1.71 µg/mL
same,IC90,[13],10.2 µg/mL
same,IC50,[14],2.83 µg/mL
same,IC90,[14],11.9 µg/mL
same,IC50,[15],0.76 µg/mL
same,IC90,[15],1.7 µg/mL
same,IC50,[16],3.14 µg/mL
same,IC90,[16],9.16 µg/mL
same,IC50,[17],3.16 µg/mL
same,IC90,[17],6.8 µg/mL
same,IC50,[18],0.68 µg/mL
same,IC90,[18],1.68 µg/mL
same,IC50,"[19]; SK-OV-3, 72 h, MTT",3.16 µg/mL
same,IC90,"[19]; SK-OV-3, 72 h, MTT",6.8 µg/mL
same,IC50,[20],1.29 µg/mL
same,IC90,[20],4.61 µg/mL
C=C1C(=O)[C@]23[C@H](OC(=O)c4ccc(C)cc4)[C@H]1CC[C@H]2[C@@]12CO[C@@]3(O)[C@@H](O)[C@@H]1C(C)(C)CCC2OC(C)=O (stereo partly drawn) [BS-OR-090],IC50,[1],0.36 µg/mL
same,IC90,[1],1.48 µg/mL
same,IC50,[2],0.37 µg/mL
same,IC90,[2],1.3 µg/mL
same,IC50,[3],0.06 µg/mL
same,IC90,[3],0.37 µg/mL
same,anti-H9 cell line activity increased,[3]; as compared with oridonin,22 fold
same,IC50,[4],0.4 µg/mL
same,IC90,[4],2.62 µg/mL
same,IC50,[5],0.05 µg/mL
same,IC90,[5],0.94 µg/mL
same,anti-NB4 cell line activity increased,[5]; as compared with oridonin,15 fold
same,IC50,[6],0.2 µg/mL
same,IC90,[6],1.61 µg/mL
same,IC50,[7],0.98 µg/mL
same,IC90,[7],4.59 µg/mL
same,anti-CNE activity increased,[7]; in comparison with oridonin,~6 fold
same,IC50,[8],0.96 µg/mL
same,IC90,[8],3.67 µg/mL
same,anti-Hela activity increased,[8]; in comparison with oridonin,more than 5 fold
same,IC50,[9],0.96 µg/mL
same,IC90,[9],5.71 µg/mL
same,anti-Hep-2 activity increased,[9]; in comparison with oridonin,~5 fold
same,IC50,[10],0.52 µg/mL
same,IC90,[10],6.3 µg/mL
same,anti-MGC-803 activity increased,[10]; in comparison with oridonin,~10 fold
same,IC50,[11],1.82 µg/mL
same,IC90,[11],6.27 µg/mL
same,IC50,[12],0.99 µg/mL
same,IC90,[12],3.01 µg/mL
same,IC50,[13],0.9 µg/mL
same,IC90,[13],3.65 µg/mL
same,IC50,[14],0.74 µg/mL
same,IC90,[14],7.09 µg/mL
same,IC50,[15],0.36 µg/mL
same,IC90,[15],0.92 µg/mL
same,IC50,[16],1.31 µg/mL
same,IC90,[16],4.41 µg/mL
same,IC50,[17],1.35 µg/mL
same,IC90,[17],5.37 µg/mL
same,IC50,[18],0.35 µg/mL
same,IC90,[18],0.88 µg/mL
same,IC50,"[19]; SK-OV-3, 72 h",1.35 µg/mL
same,IC90,"[19]; SK-OV-3, 72 h",5.37 µg/mL
same,IC50,[20],0.51 µg/mL
same,IC90,[20],1.67 µg/mL

# From patent US9902736B2, “1-oxo/acylation-14-acylated oridonin derivative, preparation method therefor and application thereof” (HANGZHOU BENSHENG PHARMACEUTICAL CO., LTD., priority 2012, dated 2018)
